Assay results as given in article PMC7075651 (Journal of Medicinal Chemistry, 2018).
Where two headings read alike, the source gives them in different places. Where a SMILES comes first, the peptide text is derived from it. [ ]: non-standard residue; d: D form. The star is where a group is joined. Palmitoyl = CCCCCCCCCCCCCCCC(=O)*; βAla = NCCC(=O)O

Legend:
IAV polymerase = test: cells; assay type: cell-based, influenza A virus; settings: read-out: IC50, influenza replicon activity
[1] = biological target: neuraminidase from influenza A/Hong Kong/8/68 (H3N2) (Influenza A virus, UniProt Q91MA2); assay type: biochemical
[2] = biological target: neuraminidase from influenza A/Puerto Rico/8/1934 (H1N1) (Influenza A virus, UniProt P03468); assay type: biochemical
IAV = assay type: cell-based, influenza A virus
in vivo = settings: male, Sprague-Dawley, rat, iv, 5 mg/kg
TZM-b1 cell = settings: human, TZM-b1 cells
N66 = N66 (Influenza A virus, UniProt P03437); assay type: binding, IAV H3 (X31); settings: pH 8.8
HA2 subunit = HA2 subunit (Influenza A virus, UniProt P03452); set-up: species or system H1/PR8 virus; settings: pH 4.6
[3] = biological target: HA1 subunit sialic acid-binding site (Influenza A virus, UniProt P03452); set-up: species or system influenza A/Puerto Rico/8/34 virus
MERS-CoV pseudovirus = settings: 12 h

Chain of neuraminidase from influenza A/Puerto Rico/8/1934 (H1N1) (P03468 whole entry, looked up): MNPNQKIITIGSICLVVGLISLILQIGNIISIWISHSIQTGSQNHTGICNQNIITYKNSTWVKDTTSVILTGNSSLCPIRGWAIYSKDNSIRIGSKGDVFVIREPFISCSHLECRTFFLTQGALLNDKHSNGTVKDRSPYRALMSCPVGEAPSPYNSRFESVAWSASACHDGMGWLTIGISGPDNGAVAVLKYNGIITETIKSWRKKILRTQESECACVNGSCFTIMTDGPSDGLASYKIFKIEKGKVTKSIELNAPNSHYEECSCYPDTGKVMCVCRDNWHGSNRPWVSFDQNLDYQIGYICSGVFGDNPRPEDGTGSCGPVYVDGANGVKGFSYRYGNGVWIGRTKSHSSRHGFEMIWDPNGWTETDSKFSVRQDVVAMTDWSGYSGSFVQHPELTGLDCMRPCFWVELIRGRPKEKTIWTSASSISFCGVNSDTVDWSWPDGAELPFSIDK
Chain of neuraminidase from influenza A/Hong Kong/8/68 (H3N2) (Q91MA2 whole entry, looked up): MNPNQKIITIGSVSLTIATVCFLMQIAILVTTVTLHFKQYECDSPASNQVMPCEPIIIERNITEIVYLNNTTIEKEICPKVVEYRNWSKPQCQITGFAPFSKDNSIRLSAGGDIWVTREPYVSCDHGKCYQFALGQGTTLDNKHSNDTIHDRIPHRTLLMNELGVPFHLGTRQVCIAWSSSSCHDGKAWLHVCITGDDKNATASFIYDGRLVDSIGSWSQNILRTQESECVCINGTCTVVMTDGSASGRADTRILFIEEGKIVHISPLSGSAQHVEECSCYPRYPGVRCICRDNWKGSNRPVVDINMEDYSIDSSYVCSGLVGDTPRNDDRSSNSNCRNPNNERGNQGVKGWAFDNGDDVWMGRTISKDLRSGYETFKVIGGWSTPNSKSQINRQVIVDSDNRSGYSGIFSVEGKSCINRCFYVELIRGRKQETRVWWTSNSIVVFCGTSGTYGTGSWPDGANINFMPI
Chain of N66 (P03437 385-450 limits assumed): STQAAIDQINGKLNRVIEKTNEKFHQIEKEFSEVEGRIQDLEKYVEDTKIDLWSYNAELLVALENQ
Chain of HA2 subunit (P03452 18-343 limits assumed): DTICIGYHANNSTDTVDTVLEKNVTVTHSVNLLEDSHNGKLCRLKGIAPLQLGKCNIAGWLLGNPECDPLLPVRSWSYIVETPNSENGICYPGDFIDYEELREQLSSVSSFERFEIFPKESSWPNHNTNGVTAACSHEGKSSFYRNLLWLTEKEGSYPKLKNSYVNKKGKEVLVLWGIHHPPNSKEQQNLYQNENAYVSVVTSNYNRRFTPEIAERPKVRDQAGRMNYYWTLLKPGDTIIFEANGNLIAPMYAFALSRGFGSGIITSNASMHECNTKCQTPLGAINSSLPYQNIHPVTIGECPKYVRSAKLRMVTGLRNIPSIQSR
Chain of HA2 subunit (P03452 345-565 limits assumed): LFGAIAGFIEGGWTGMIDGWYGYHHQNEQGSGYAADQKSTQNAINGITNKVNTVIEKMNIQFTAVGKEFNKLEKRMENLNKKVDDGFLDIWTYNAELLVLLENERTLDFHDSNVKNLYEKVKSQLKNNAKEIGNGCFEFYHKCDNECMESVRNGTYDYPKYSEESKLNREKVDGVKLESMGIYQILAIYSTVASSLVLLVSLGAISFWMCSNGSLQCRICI
Chain of HA1 subunit sialic acid-binding site (P03452 18-343 limits assumed): as the sequence (P03452 18-343 limits assumed) above
Chain of HA1 subunit sialic acid-binding site (P03452 345-565 limits assumed): as the sequence (P03452 345-565 limits assumed) above

| Structure (SMILES) | CC50, cytotoxicity of compounds on MDCK cells (MDCK cells) [µM] | IC50 (IAV polymerase; Influenza A virus, HEK-293T, 30 h) [µM] | inhibition of neuraminidase of A/Hong Kong/8/68 (H3N2), in words [1] | inhibition of neuraminidase of A/Puerto Rico/8/34 (H1N1), in words [2] | antiviral effect at the interval of 5–8 h (IAV) | level at 24 h (in vivo) [ng/mL] | CC50 on the TZM-b1 cell (TZM-b1 cell) [µM] | N-PAGE of equimolar mixture with N66 (N66) | antiviral activity in the remaining three time intervals (IAV) | reduction of viral load, interval 0–10 h (IAV) | CC50, cytotoxicity of compounds on MDCK cells (MDCK cells; dog, MDCK cells, 72 h) [µM] | lysis of erythrocytes caused by HA2 under acidic condition (HA2 subunit) | inhibition of influenza virus-induced aggregation of chicken erythrocytes [3] | EC50 (MERS-CoV pseudovirus) [µM] | IC50 (IAV polymerase) [µM] |
| --- | --- | --- | --- | --- | --- | --- | --- | --- | --- | --- | --- | --- | --- | --- | --- |
| CCOC(=O)C1=C[C@@H](OC(CC)CC)[C@H](NC(C)=O)[C@@H](N)C1 [oseltamivir, reference compound] | >100 | > 100 | – | – | – | – | – | – | – | – | – | – | – | – | – |
| NC(=O)c1nc(F)cnc1O [favipiravir, reference compound] | – | – | neither IIQ nor favipiravir was able to disturb cleavage of the substrate | neither IIQ nor favipiravir was able to disturb cleavage of the substrate | continued to exert its full effect | – | – | – | – | – | – | – | – | – | – |
| CCCCCCCCCCCCCCCC(=O)NCCCC[C@H](NC(=O)CCNC(=O)[C@H](CCCCN)NC(=O)[C@H](CCCCN)NC(=O)[C@H](CCC(N)=O)NC(=O)[C@@H](NC(=O)[C@H](CCC(=O)O)NC(=O)[C@H](CCC(=O)O)NC(=O)[C@@H](NC(=O)[C@H](CCCCN)NC(=O)[C@H](CCCCN)NC(=O)[C@H](CCC(N)=O)NC(=O)[C@@H](NC(=O)[C@H](CCC(=O)O)NC(=O)[C@H](CCC(=O)O)NC(=O)[C@@H](NC(=O)[C@H](CCCCN)NC(=O)[C@H](CCCCN)NC(=O)[C@H](CCC(N)=O)NC(=O)[C@@H](NC(=O)[C@H](CCC(=O)O)NC(=O)[C@H](CCC(=O)O)NC(=O)[C@@H](NC(=O)[C@H](CCCCN)NC(=O)[C@H](CCCCN)NC(=O)[C@H](CCC(N)=O)NC(=O)[C@@H](NC(=O)[C@H](CCC(=O)O)NC(=O)[C@H](CCC(=O)O)NC(=O)[C@@H](NC(=O)[C@H](CCCCN)NC(=O)[C@H](CCCCN)NC(=O)[C@H](CCC(N)=O)NC(=O)[C@@H](NC(=O)[C@H](CCC(=O)O)NC(=O)[C@H](CCC(=O)O)NC(=O)[C@@H](NC(C)=O)[C@@H](C)CC)[C@@H](C)CC)[C@@H](C)CC)[C@@H](C)CC)[C@@H](C)CC)[C@@H](C)CC)[C@@H](C)CC)[C@@H](C)CC)[C@@H](C)CC)[C@@H](C)CC)C(N)=O [IIQ] (Ac-IEEIQKKIEEIQKKIEEIQKKIEEIQKKIEEIQKK[βAla]K(Palmitoyl)-NH2) | – | – | neither IIQ nor favipiravir was able to disturb cleavage of the substrate | neither IIQ nor favipiravir was able to disturb cleavage of the substrate | – | > 100 | > 100 | new bands at the upper positions in the gel | no antiviral activity | approximately 60% | >100 | decreased compared with the hemolytic effect of virus only | no apparent inhibition | 0.13 | > 100 |
